According to US20140113947A1, “PHARMACEUTICAL CREAM COMPOSITIONS OF OXYMETAZOLINE AND METHODS OF USE” (Allergan, Inc., priority 2011, published 2014):

Tests used:
[1] = In vitro permeation (Hanson Microette Franz Cell), flux across cellulose acetate membrane; assay type: in vitro ADME
Method: An in vitro permeation procedure for oxymetazoline cream was developed using the 0.01 and 0.10% w/w oxymetazoline cream. The in vitro experiments were conducted using Hanson Microette Franz Cell apparatus and 0.01N PBS (pH 7.4) as the receiving medium. Other critical parameters were evaluated such as the type of semi-synthetic membrane, sample timing (time dependent release-permeability profile), method sensitivity, specificity and linearity. Permeation characterization of oxymetazoline cream of different strengths (0.01% w/w, 0.05% w/w, 0.10% w/w and 0.15% w/w) was based on flux study across two different artificial membranes (cellulose acetate and polysulfone). The concentration of oxymetazoline which permeated through the membranes was measured using an HPLC assay.

[2] = In vitro permeation (Hanson Microette Franz Cell), flux across polysulfone membrane; assay type: in vitro ADME
Method: An in vitro permeation procedure for oxymetazoline cream was developed using the 0.01 and 0.10% w/w oxymetazoline cream. The in vitro experiments were conducted using Hanson Microette Franz Cell apparatus and 0.01N PBS (pH 7.4) as the receiving medium. Other critical parameters were evaluated such as the type of semi-synthetic membrane, sample timing (time dependent release-permeability profile), method sensitivity, specificity and linearity.
Permeation characterization of oxymetazoline cream of different strengths (0.01% w/w, 0.05% w/w, 0.10% w/w and 0.15% w/w) was based on flux study across two different artificial membranes (cellulose acetate and polysulfone). The concentration of oxymetazoline which permeated through the membranes was measured using an HPLC assay.

[3] = concentration range 0.01-0.10% w/w
[4] = creams 0.01-0.15% w/w, dump and die profile

## Cc1cc(C(C)(C)C)c(O)c(C)c1CC1=NCCN1 [oxymetazoline, 3-(4,5-dihydro-1H-imidazol-2-ylmethyl)-2,4-dimethyl-6-tert-butyl-phenol]
[1]
  concentration level above which in vitro membrane transport reached saturation: > 0.1 % w/w
[1]; [3]
  Oxymetazoline permeability (AUC0-24h) as a function of concentration: linearly increased
[1]; [4]
  time of peak of oxymetazoline permeation rate after cream application: 0.5 h
[2]
  concentration level above which in vitro membrane transport reached saturation: > 0.1 % w/w
[2]; [3]
  Oxymetazoline permeability (AUC0-24h) as a function of concentration: linearly increased
[2]; [4]
  time of peak of oxymetazoline permeation rate after cream application: 0.5 h
